Measured values as given in ChEMBL document CHEMBL1147683, “Synthesis of new and potent analogues of anti-tuberculosis agent 5-nitro-furan-2-carboxylic acid 4-(4-benzyl-piperazin-1-yl)-benzylamide with improved bioavailability” (Bioorg Med Chem Lett, 2006).
Values after ≈ are worked out from the molar mass of the structure shown.

How the values were obtained:
[1] = tested on: Mycobacterium tuberculosis; assay: Antituberculosis activity against Mycobacterium tuberculosis; type: functional
[2] = (§1) Cmax in mouse serum at 300 mg/kg, po; type: ADME, organism-based; parameters: dose 300 mg/kg, route oral; conditions: serum
[3] = Half life in mouse serum at 300 mg/kg, po; type: ADME, organism-based; parameters: dose 300 mg/kg, route oral
[4] = Tmax in mouse at 300 mg/kg, po; type: ADME, organism-based; parameters: dose 300 mg/kg, route oral; conditions: in vivo
Mus musculus = assay: as §1; type: ADME, organism-based; parameters: dose 300 mg/kg, route oral; conditions: in vivo

| Structure (SMILES) | MIC90 [1] [µg/mL] | Cmax [2] [ng/mL] | half-life [3] [h] | Tmax [4] [h] | Cmax (Mus musculus) [ng/mL] |
| --- | --- | --- | --- | --- | --- |
| CC(C)NC(=O)N1CCN(c2ccc(CNC(=O)c3ccc([N+](=O)[O-])o3)cc2)CC1 | 0.8 (≈ 1.93 µM) |  |  |  |  |
| CC(C)(C)OC(=O)N1CCCN(c2ccc(CNC(=O)c3ccc([N+](=O)[O-])o3)cc2)CC1 | 0.1 (≈ 0.225 µM) | 280 | 7.5 | 0.5 |  |
| CC(C)NC(=O)N1CCN(c2ccc(CNC(=O)c3ccc([N+](=O)[O-])o3)cn2)CC1 | 0.56 (≈ 1.34 µM) | 22000 | 0.5 | 2.5 |  |
| CCOC(=O)N1CCN(c2ccc(CNC(=O)c3ccc([N+](=O)[O-])o3)cc2)CC1 | 0.0062 (≈ 0.0154 µM) |  |  |  |  |
| O=C(NCc1ccc(N2CCN(Cc3ccccc3)CC2)nc1)c1ccc([N+](=O)[O-])o1 | 0.0062 (≈ 0.0147 µM) | 1470 | 1.3 | 0.5 |  |
| O=C(c1ccc([N+](=O)[O-])o1)N1CCc2cc(N3CCSCC3)ccc2C1 | 0.4 (≈ 1.07 µM) |  |  |  |  |
| Cl.O=C(NCc1ccc(N2CCN(Cc3ccccc3)CC2)cc1)c1ccc([N+](=O)[O-])o1 |  |  |  |  | 2240 |
| COC(=O)N1CCN(c2ccc(CNC(=O)c3ccc([N+](=O)[O-])o3)cc2)CC1 | 0.1 (≈ 0.257 µM) |  |  |  |  |
| CC(C)(C)OC(=O)N1CCN(c2ccc(CNC(=O)c3ccc([N+](=O)[O-])o3)cc2)CC1 | 0.025 (≈ 0.0581 µM) |  |  |  |  |
| Cl.O=C(c1ccc([N+](=O)[O-])o1)N1CCc2cc(N3CCN(Cc4ccccc4)CC3)ccc2C1 |  | 736 | 3.5 | 0.5 |  |
| CC(C)NC(=O)N1CCCN(c2ccc(CNC(=O)c3ccc([N+](=O)[O-])o3)cc2)CC1 | 0.8 (≈ 1.86 µM) | 7400 | 2 | 0.5 |  |
| CCOC(=O)N1CCCN(c2ccc(CNC(=O)c3ccc([N+](=O)[O-])o3)cc2)CC1 | 0.1 (≈ 0.24 µM) |  |  |  |  |
| CC(C)COC(=O)N1CCN(c2ccc(CNC(=O)c3ccc([N+](=O)[O-])o3)cc2)CC1 | 0.05 (≈ 0.116 µM) |  |  |  |  |
| CC(C)(C)OC(=O)N1CCN(c2ccc(CNC(=O)c3ccc([N+](=O)[O-])o3)cn2)CC1 | 0.05 (≈ 0.116 µM) | 1230 | 2.3 | 0.5 |  |
| O=C(NCc1ccc(N2CCCN(Cc3ccccc3)CC2)cc1)c1ccc([N+](=O)[O-])o1 | 0.8 (≈ 1.84 µM) |  |  |  |  |
| CCOC(=O)N1CCN(c2ccc(CNC(=O)c3ccc([N+](=O)[O-])o3)cn2)CC1 | 0.05 (≈ 0.124 µM) | 6560 | 0.7 | 2.5 |  |
| CN1CCN(c2ccc3c(c2)CCN(C(=O)c2ccc([N+](=O)[O-])o2)C3)CC1.Cl |  | 280 | 2 | 0.5 |  |
| CCCCOC(=O)N1CCN(c2ccc(CNC(=O)c3ccc([N+](=O)[O-])o3)cc2)CC1 | 0.05 (≈ 0.116 µM) |  |  |  |  |
| CN1CCN(c2ccc3c(c2)CCN(C(=O)c2ccc([N+](=O)[O-])o2)C3)CC1 | 0.2 (≈ 0.54 µM) |  |  |  |  |
| O=C(c1ccc([N+](=O)[O-])o1)N1CCc2cc(N3CCN(Cc4ccccc4)CC3)ccc2C1 | 0.0062 (≈ 0.0139 µM) |  |  |  |  |
| C=CCOC(=O)N1CCN(c2ccc(CNC(=O)c3ccc([N+](=O)[O-])o3)cc2)CC1 | 0.5 (≈ 1.21 µM) |  |  |  |  |
| CCCNC(=O)N1CCN(c2ccc(CNC(=O)c3ccc([N+](=O)[O-])o3)cc2)CC1 | 0.2 (≈ 0.481 µM) | 4800 | 1.5 | 2.5 |  |
| O=C(NCc1ccc(N2CCN(Cc3ccccc3)CC2)cc1)c1ccc([N+](=O)[O-])o1 | 0.0125 (≈ 0.0297 µM) |  |  |  |  |
